{"source": "patent US7645740B2", "about": "“Peptide sequence found in Laminin 5 for treating skin impairments” (Laboratoires d'Anjou Centre National de la Recherche …, priority 2004, dated 2010)", "type_in_all_cases": "cell-based, human", "key": {"[1]": {"tested_on": "NHK-old (keratinocytes from elderly individuals)", "test": "Cell adhesion of NHK-old to immobilized peptide", "conditions": "0 to 5 micrograms per well, 1 hour 37° C.", "procedure": "Dose-dependent cell adhesion of NHK-10 years versus NHK-71 years (A) and NHK-11 years versus NHK-60 years (B) peptides TALRIRATYHEY. The peptides were immobilized in 96-well plates at the concentrations given on the abscissa. 3.5×10^4 (A) cells and 4.3×10^4 (B) cells were deposited in each well and plates were incubated at 37° C. for 1 hour. After washing, attached cells were fixed and cell adhesion was measured as described in the methodology section (C). Cells were observed by phase contrast microscopy then photographed. Bar=50 μm.\nIn order to obtain keratinocytes originating from biopsies taken from young and old individuals and taken from the same anatomical site, the inventors conducted a study of facial skin biopsies. The area of the face situated behind the ears was chosen in order to study only intrinsic aging and to overcome the effects of photo-induced aging. Surgery waste from cosmetic surgery (face lifts) in older individuals and surgery waste from detached ears in young children was collected. It is essential to use biopsies collected on the same day as surgery was performed in order to quickly place the epidermal keratinocytes in culture. Cells from biopsies on elderly individuals (60, 63 and 71 years) and young individuals (8, 10 and 11 years) were used for this study. The keratinocytes were obtained by means of the technique described by Boyce and Ham, 1985. […]"}, "NHKs [2]": {"tested_on": "NHKs", "test": "Cell adhesion of NHKs to peptides co-immobilized with laminin 5", "procedure": "(§1) Peptides 1, 2 and 3 (variable quantities indicated) and laminin 5 (fixed quantity 0.2 mg) were co-immobilized in 96-well plates. 5×104 NHKs were deposited in each well and plates were incubated at 37° C. for 1 hour. After washing, attached cells were fixed and cell adhesion was measured as described in the methodology section. Cell adhesion in the presence of the peptide is given as a percentage of cell adhesion obtained with laminin 5 alone. Cells were observed by phase contrast microscopy then photographed. Bar=50 μm.\n(§2) A decreasing range of LN5 (prepared in the laboratory) and COL4 (BD Biosciences, Le Pont de Claix, France) quantities was made up by successive dilution in PBS. These solutions were immediately distributed into a 96-well culture plate (Costar) at a rate of 100 μl per well. The experiment was conducted in exactly the same way as the experiment described in example 2. The results are given in the form of a graph with the absorbance values representing adhesion on the ordinate and the various substrate concentrations on the abscissa. Attached cells were photographed by phase contrast microscopy.\nIn order to analyse the effect of the peptide on cell adhesion to DEJ proteins, peptide TALRIRATYGEY (SEQ ID NO.1) (peptide 1) was co-immobilized with LN5 (FIG. 14) and COL4 (FIG. 15). The fixed quantity of matrix protein (LN5 and COL4) and the variable quantity of peptide are given on the graph (FIGS. 14 and 15). Peptides 2 and 3 (described in example 1) were used as controls for the experiment. The adhesion tests were carried out with NHK under the same conditions as the experiment given in FIG. 13 (50,000 cells per well). A peptide-free control representing 100% adhesion (LN5 only and COL4 only) was used to allow analysis of the effect of adhesion relating to the presence of the peptide. The results are given as a percentage of this control."}, "NHKs [3]": {"tested_on": "NHKs", "test": "Cell adhesion of NHKs to peptide co-immobilized with collagen IV", "conditions": "collagen IV fixed quantity 0.06 mg, 50,000 cells per well, percentage of COL4 alone", "procedure": "as §1, with “collagen IV” for “laminin 5”, “0.06” for “0.2”\nas §2, with “Attached cells were photographed by phase contrast microscopy.” left out\nIn order to analyse the effect of the peptide on cell adhesion to DEJ proteins, peptide TALRIRATYGEY (SEQ ID NO.1) (peptide 1) was co-immobilized with LN5 (FIG. 14) and COL4 (FIG. 15). The fixed quantity of matrix protein (LN5 and COL4) and the variable quantity of peptide are given on the graph (FIGS. 14 and 15). […]"}}}
{"sequence": "TALRIRATYGEY (Human laminin 5) [Peptide 1]", "values": [{"measurement": "cell adhesion to immobilized peptide", "setting": "[1]", "result": "triggered dose-dependent cell adhesion"}, {"measurement": "effect on adhesion of NHKs to LN5 (co-immobilized)", "setting": "NHKs [2]; laminin 5 fixed quantity 0.2 mg, 50,000 cells per well, percentage of LN5 alone", "result": "gradual and significant increase"}, {"measurement": "change of adhesion to LN5, on average", "setting": "NHKs [2]; peptide quantity of 0.21 to 0.87 μg/well, LN5 alone = 100%", "result": "doubled"}, {"measurement": "effect on adhesion of keratinocytes to COL4 (co-immobilized)", "setting": "NHKs [3]", "result": "no significant effect"}]}
